Literature values as cited in patent US20230174671A1, “COMPOSITIONS AND METHODS FOR TREATING VIRAL INFECTIONS” (BIOVISTA, INC., priority 2020, published 2023).
Structures can show the parent of a compound that is named as a salt.

Tests used:
[1] = test system: human coronavirus NL63 (HCoV-NL63); details: HeLa cells expressing TMPRSS2; Kawase et al, 2012
SARS-CoV = details: HeLa cells expressing TMPRSS2; Kawase et al, 2012

Compound: CN(C)C(=O)COC(=O)Cc1ccc(OC(=O)c2ccc(NC(=N)N)cc2)cc1 [camostat mesylate]
- block of infection by human coronavirus NL63 (HCoV-NL63) [1]: partially block infection
- block of infection by SARS-CoV (SARS-CoV): partially block infection
